# Experimental data published in patent US5855906A, “Intravaginal drug delivery devices for the administration of 17β-oestradiol precursors” (priority 1994, dated 1999).
# Entries after “also recorded” stand apart in the source; their conditions may differ.
# How the values were obtained:
# [1] = Aqueous solubility in distilled water at 20 °C; conditions: for requisite aqueous solubility (not less than 1 μg per 100 ml): 20 °C
# [2] = Nominal in vitro daily release from intravaginal rings under sink conditions (1% w/v benzalkonium chloride, 37 °C); format: physicochemical; conditions: "100 μg" ring, core 2×141 mm
# Method: The nominal in vitro release rates set out in Table 1 for the rings of Examples 1-5 were determined under sink conditions of 1% (w/v) benzalkonium chloride. These release rates were determined in the following manner.
# Each ring (n=4) was suspended in the dissolution medium in an individual flask which is then capped, placed in a suitable oven at 37° C. and shaken. The dissolution medium was changed every 24 hours (±30 minutes). An aliquot of the used dissolution medium was analysed by high performance liquid chromatography (HPLC) using reverse phase packing and UV detection (at 235 nm for 17β-oestradiol-3-acetate and for
# . The sensitivity of the original and improved analytical methods is 5 μg/100 ml.
# [3] = In vitro dissolution: mean daily release from full-length-core rings over up to 90 days in three media; format: physicochemical; set-up: key to Mean Daily Release: **: Not detected; conditions: 9 × 54 mm ring, core 141 × 2 mm, 37 °C, N = 4
# Description: In all cases the ring geometries comprise a ring of dimensions 9 mm (cross-sectional diameter)×54 mm (outer diameter) and containing a full length core (141 mm) of cross-sectional diameter 2 mm. […] The saline and benzalkonium chloride-containing media were chosen to ensure `sink conditions` in at least one medium for each intravaginal ring. It will be recognised by those skilled in the art that the term `sink conditions` refers to that set of experimental conditions in vitro which effectively simulates the active haemoperfusion that occurs in vivo, and which results in a maximum drug concentration gradient and maximum drug diffusion rate, at any given time, across the aqueous boundary layer. Thus, an in vitro dissolution experiment can be designed such that the solution solubility of the released drug in the dissolution medium is much greater than its bulk concentration in this medium at any given time, for example, by micellar drug solubilisation due to incorporation of a surfactant such as benzalkonium chloride (BKC), at a concentration above its critical micelle concentration. Thus, each ring was suspended by a thread in an individual closed flask containing the dissolution medium, maintained at a constant temperature of 37° C. The contents of the flask were gently agitated in order to prevent the occurrence of a hydrostatic layer on the surface of the ring. After 24 hours, the ring was removed and suspended in a flask of fresh dissolution medium of identical volume by a method identical to that previously described.
# [4] = In vitro release from rings of varying core length and apparent/standard k value (Crank's equation); format: physicochemical; set-up: Standard k: unit not given here; conditions: for apparent k value versus core length: Table 3 rings; for apparent k value versus core length / k: 1% (w/v) BKC; for Mean Daily Release / Standard k: Table 4; for Mean Daily Release / Mean Daily Release (as precursor): n = 5; for k (standard k) / k (using core of 141 mm length): Table 5; for k: in µg/day/mm; for Mean Daily Release (as precursor): 250 ml 1% (w/v) BKC
# Description: Precursor release from a cylindrical device of core design, which comprises a polymer matrix in the form of a core incorporating 17β-oestradiol precursor and a sheath surrounding the core, can be described by Crank's equation: [formula] in which R=precursor release rate (μg/day)
# Crank's equation relates the precursor release rate (R), in sink conditions, to the solubility (C2 S) and diffusibility (D) of the precursor in the polymer matrix, its partition characteristics (π) between the polymer matrix and the dissolution medium; and the ring dimensions (l, b, a). For any given precursor in any given polymer matrix, CS, D and π will be constant and can be grouped together to form the composite constant, k:
# The k value can be empirically derived using Crank's equation in the following manner: [formula]
# The k value is dependent on core length for certain of the 17β-oestradiol precursors (see Example 6 hereinafter). Accordingly, the k value at a core length of 35 mm has been denoted "standard k" value hereinafter.
# Intravaginal drug delivery devices in the form of rings were prepared, each with a ring geometry as described in Table 3, by following the General Method of Manufacture set out hereinabove.
# The dissolution medium was changed daily, following the protocol set out hereinabove. Mean daily release rates from the second week of dissolution experiments were used to determine the apparent k values presented in Table 3.
# It was, therefore, decided to determine k values at a core length of 35 mm and such k values are hereinafter referred to as "standard k" values.
# The standard k value was determined from the mean daily release rates observed in Example 6. The dissolution medium of 1.0% (w/v) of an aqueous solution of benzalkonium chloride was used in respect of the various 17β-oestradiol precursors, so as to ensure sink conditions.
# [5] = Silicone solubility at 37 °C in Dow Corning 360 medical fluid; format: physicochemical; conditions: organic solvent or mixture
# Method: Silicone solubility was determined at 37° C. in Dow Corning (Trade Mark) 360 medical fluid.
# [6] = In vitro plasma hydrolysis (stability in human blood at 37 °C)
# physchem = conditions: distilled water
# [7] = compiled from Novel Drug Delivery Systems (Chien); cited from earlier work
# [8] = shell ring, 58 mm × 9.5 mm; cited from earlier work
# [9] = 1.0% (w/v) BKC, core length 35 mm
# [10] = core length 35 mm, 1.0% (w/v) BKC
SMILES,Mean Daily Release ([3]; 0.9% (w/v) saline),Mean Daily Release ([3]; 1.0% (w/v) BKC),apparent k value versus core length [4],"Mean Daily Release [4, 9]","Standard k [4, 10]",k (standard k) ([4]; core length 35 mm),k ([4]; core length 35 mm),Mean Daily Release (as precursor) ([4]; core length 35 mm),k ([4]; core length 70 mm),Mean Daily Release (as precursor) ([4]; core length 70 mm),k ([4]; core length 140 mm),Mean Daily Release (as precursor) ([4]; core length 140 mm),Mean Daily Release ([3]; 0.133% (w/v) BKC),solubility (physchem),requisite aqueous solubility (not less than 1 μg per 100 ml) [1],k (using core of 141 mm length) [4],Silicone solubility [7],also measured
CC(=O)O[C@H]1CC[C@H]2[C@@H]3CCc4cc(O)ccc4[C@H]3CC[C@]12C,24 μg per day,96 μg per day,varies with core length,19.50 µg/day,0.838,0.838 μg/day/mm,0.8380,19.50 µg/day,0.8797,40.94 µg/day,0.9395,87.45 µg/day,,,,,,"solubility ([1]; water): 0.12 µg/mL; nominal in vitro daily release rate [2]: 100 µg; solubility ([5]; Dow Corning 360 medical fluid, 37 °C, read-out: Silicone solubility): 17 µg/mL; half-life [6]: 4 h"
CCC(=O)O[C@H]1CC[C@H]2[C@@H]3CCc4cc(O)ccc4[C@H]3CC[C@]12C,26 μg per day,218 μg per day,varies with core length,42.86 µg/day,1.842,1.842 μg/day/mm,1.842,42.86 µg/day,1.795,83.54 µg/day,1.667,155.20 µg/day,112 μg per day,0.05 µg/mL,,,,k ([4]; core length 17 mm): 2.130; Mean Daily Release (as precursor) ([4]; core length 17 mm): 24.08 µg/day
CCC(=O)Oc1ccc2c(c1)CC[C@@H]1[C@@H]2CC[C@]2(C)[C@@H](O)CC[C@@H]12,,1200 μg per day,,300.00 µg/day,12.89,12.89 μg/day/mm,12.89,300.00 µg/day,12.89,600.00 µg/day,12.89,1200.00 µg/day,,2.3 µg/mL,,,,"Mean Daily Release ([4]; 0.9% (w/v) saline, core length 35 mm): 250 to 350 µg/day; solubility [5]: 300 µg/mL"
"CCCCC(=O)O[C@H]1CC[C@H]2[C@@H]3CCc4cc(O)ccc4[C@H]3CC[C@]12C [17β-oestradiol-17-valerate, reference compound]",**,550 μg per day,,,,,,,,,,,365 μg per day,,too low; also recorded: not possessing the requisite aqueous solubility,5.86 μg/day/mm,15.02 mg/100 ml,
C#C[C@]1(O)CC[C@H]2[C@@H]3CCC4=CC(=O)CC[C@@H]4[C@H]3CC[C@@]21CC [levonorgestrel],,,,,,,,,,,,,,,,,,daily release [8]: 290 μg per day
C[C@]12CC[C@@H]3c4ccc(OC(=O)c5ccccc5)cc4CC[C@H]3[C@@H]1CC[C@@H]2O [reference compound],< 5 μg per day,66 μg per day,,,,,,,,,,,42 μg per day,,not possessing the requisite aqueous solubility,0.70 μg/day/mm,3.68 mg/100 ml,
